The results in this text go back to ChEMBL document CHEMBL1201862, “PubChem BioAssay data set” (2004).

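Method: 48-hour compound exposure of cells in 96-well plates, five concentrations, linear interpolation of endpoints. Abbreviation: GI50, concentration required for 50% inhibition of growth.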 Calls of active or inactive are those of the source. No stated cut-off is given here; in the data, active = GI50 up to about 1.1 µM and inactive = higher.

Assay in all cases: NCI anticancer screen, dose series, 48 h
The subject of assay [1] is CAKI-1.
The test system of assay [2] is SF-268.
Assay [3] deals with SNB-19.
The test system of assay [4] is SK-MEL-5.
Assay [5] has as its system MDA-MB-435.
Assay [6] deals with HCT-15.
The test system of assay [7] is OVCAR-4.
Assay [8] deals with OVCAR-8.
Assay [9] relates to 786-0.
Assay [10] concerns PC-3.
The test system of assay [11] is KM12.
Assay [12] concerns T47D.
Assay [13] relates to UACC-257.
The subject of assay [14] is RPMI-8226.
The subject of assay [15] is IGROV-1.
Assay [16] relates to OVCAR-3.
Assay [17] concerns CCRF-CEM.
The test system of assay [18] is MDA-MB-231.
For assay [19], the system named is HCC 2998.
Assay [20] relates to RXF 393.

Consider `CN1CCN(CCCN2c3ccccc3Sc3ccc(C(F)(F)F)cc32)CC1`, for which the GI50 in assay [1] is 10.9 µM (inactive); in assay [2] it was 12.4 µM (inactive); in assay [3], 15.2 µM (inactive); in assay [4], 3.09 µM (inactive); in [5], 3.35 µM (inactive); in assay [6], 7.1 µM. For the same molecule, the GI50 is 13.5 µM (inactive) in assay [7]; 15.9 µM (inactive) in [8]; 7.93 µM (inactive) in assay [9]; 4.72 µM (inactive) in assay [10]; 5.14 µM (inactive) in [11]; 10 µM (inactive) in assay [12]. Moreover, the GI50 in assay [13] is 2.6 µM (inactive).
As to `COc1cc2oc(=O)cc(C)c2cc1OC`, the GI50 in assay [14], in [15], in assay [2], in assay [16], in assay [3] and in [4] was > 100 µM (inactive) each time. Besides, the GI50 in assay [5] is > 100 µM (inactive); in assay [6] it was above 100 µM; in assay [7], > 100 µM (inactive); in [8], > 100 µM (inactive); in assay [9], > 100 µM (inactive); in assay [10], > 100 µM (inactive). Moreover, the GI50 in assay [17], in assay [18], in assay [11] and in assay [13] was > 100 µM (inactive) each time.
On to `O=S(=O)(c1ccccc1)n1c2cc3cccnc3nc2c2cccnc21`, for which the GI50 in assay [14] is 18.5 µM (inactive); in assay [1] it was > 100 µM (inactive); in assay [15], 79.1 µM (inactive); in assay [19] it was > 100 µM (inactive); in [2], 56.8 µM (inactive); in assay [16] it was 38.5 µM (inactive). In addition, the GI50 in assay [3] is 40.1 µM (inactive); in assay [4], 54.3 µM (inactive); in assay [20], 27.6 µM (inactive); in assay [5] it was 25.5 µM (inactive); in assay [6] it was 71.3 µM; in assay [7] it was 72.3 µM (inactive). For the same molecule, the GI50 in assay [8] was 74.1 µM (inactive); in assay [9] it was 71.8 µM (inactive); in [10], 97.9 µM (inactive); in assay [17], 22.4 µM (inactive); in assay [18], > 100 µM (inactive); in assay [11], > 100 µM (inactive). In assay [13], the GI50 is 54.6 µM (inactive).
`CCCCCCCCCCCCCCCCCCN(C)CC(COC)OP(=O)([O-])OCC[N+](C)(C)C` (stereo not drawn): the GI50 was 0.635 µM (active) in [14]; 1.33 µM (inactive) in [1]; 0.532 µM (active) in [15]; 1.42 µM (inactive) in assay [19]; 1.48 µM (inactive) in assay [2]; 2.24 µM (inactive) in assay [16]. For the same molecule, the GI50 in assay [3] was 0.867 µM (active); in assay [4], 9.44 µM (inactive); in assay [20], 0.824 µM (active); in assay [5], 5.08 µM (inactive); in [6], 3.14 µM; in [7], 2.54 µM (inactive). Further, the GI50 in assay [8] is 3.27 µM (inactive); in assay [9] it was 0.938 µM (active); in assay [10], 0.374 µM (active); in assay [17], 1.51 µM (inactive); in assay [11], 0.644 µM (active); in assay [12] it was 14 µM (inactive). The GI50 in assay [13] was 9.08 µM (inactive).
As for `COc1cc2c(cc1O)C(C)Cc1cc3c(cc1N(C)CC2)OCO3` (stereo not drawn), the GI50 in assay [14] is 4.09 µM (inactive); in assay [1], 12.1 µM (inactive); in assay [15], 10 µM (inactive); in assay [19], 5.27 µM (inactive); in assay [2] it was 5.3 µM (inactive); in [16] it was 3.03 µM (inactive). For the same molecule, the GI50 is 7.4 µM (inactive) in [3]; 2.59 µM (inactive) in [4]; 1.77 µM (inactive) in assay [20]; 3.94 µM in assay [6]; 15.7 µM (inactive) in assay [7]; 9.25 µM (inactive) in assay [8]. The GI50 in assay [9] is 4.35 µM (inactive); in [17], 4.59 µM (inactive); in assay [11], 4.15 µM (inactive); in [13], 6.15 µM (inactive).
Consider `CCN(C(C)=N)c1ccccc1`, for which the GI50 in [14] is 27 µM (inactive); in assay [1] it was 95.1 µM (inactive); in assay [15] it was > 100 µM (inactive); in assay [19] it was > 100 µM (inactive); in assay [2], > 100 µM (inactive); in [16], > 100 µM (inactive). Besides, the GI50 in assay [3] was 78.7 µM (inactive); in assay [4], 35.1 µM (inactive); in [20] it was > 100 µM (inactive); in assay [6] it was above 100 µM; in assay [7], 66.8 µM (inactive); in assay [8] it was > 100 µM (inactive). Besides, the GI50 in assay [9] is > 100 µM (inactive); in assay [17] it was > 100 µM (inactive); in [11], > 100 µM (inactive); in [13], 17.2 µM (inactive).
For `COC(=O)C1=C(C(=O)OC)C2=S(SC3=C2CCCC3)S1` (stereo not drawn), the GI50 in [14] was 3.26 µM (inactive); in assay [1], 20 µM (inactive); in assay [15] it was 85.7 µM (inactive); in assay [19], > 100 µM (inactive); in [2] it was 37.6 µM (inactive); in assay [16], 16.4 µM (inactive). Also, the GI50 in assay [3] is > 100 µM (inactive); in [4] it was 0.378 µM (active); in [20], 13.3 µM (inactive); in [6], 13.3 µM; in [7], 19 µM (inactive); in assay [8], 12.9 µM (inactive). The GI50 in assay [9] is 4.11 µM (inactive); in [17] it was 2.98 µM (inactive); in assay [11], 20.8 µM (inactive); in [13], 37.2 µM (inactive).
`COC(=O)C1N=CSCC1(C)O` (stereo not drawn): the GI50 in assay [14], in assay [1], in assay [15], in assay [19], in [2] and in [16] was > 100 µM (inactive) in each case. The GI50 was > 100 µM (inactive) in assay [3]; > 100 µM (inactive) in [4]; > 100 µM (inactive) in assay [20]; above 100 µM in assay [6]; > 100 µM (inactive) in [7]; > 100 µM (inactive) in assay [8]. Also, the GI50 in assay [9], in assay [17], in [11] and in [13] was > 100 µM (inactive) in each case.
As for `COC(=O)[C@@]1(O)CC(C)C=C1C=O` (stereo partly drawn), the GI50 in [14] is > 100 µM (inactive); in assay [1], > 100 µM (inactive); in [15] it was > 100 µM (inactive); in assay [19], 66.5 µM (inactive); in [2], 43.2 µM (inactive); in assay [16], 53.6 µM (inactive). Further, the GI50 in [3] is > 100 µM (inactive); in [4] it was > 100 µM (inactive); in assay [20], 15.8 µM (inactive); in assay [6], 17.8 µM; in [7], > 100 µM (inactive); in assay [8], > 100 µM (inactive). The GI50 in [9] was 60.5 µM (inactive); in assay [17], 25.3 µM (inactive); in [11], 67.5 µM (inactive); in assay [13] it was > 100 µM (inactive).
Turning to `CC1=CCC[C@@]2(C)C(CC[C@@H]2C(C)/C=C/C(C)C)c2ccc(cc2C(=O)O)C[C@@H](O)CC1` (stereo partly drawn), the GI50 in [14] is 3.63 µM (inactive); in assay [1], 17 µM (inactive); in assay [15] it was 12.3 µM (inactive); in assay [19], 9.93 µM (inactive); in assay [2], 14.2 µM (inactive); in assay [16], 13.7 µM (inactive). Further, the GI50 in assay [3] was 5.2 µM (inactive); in assay [4], 3.59 µM (inactive); in assay [20] it was 15.9 µM (inactive); in assay [6] it was 5.07 µM; in assay [7] it was 12.1 µM (inactive); in assay [8], 15.2 µM (inactive). Besides, the GI50 in [9] is 14.6 µM (inactive); in [17] it was 5.09 µM (inactive); in [11], 11 µM (inactive); in assay [13], 16.6 µM (inactive).
Turning to `COC(=O)c1nsc(OC)c1Cl`, the GI50 in [14], in assay [1], in assay [15], in [19], in [2] and in [16] was > 100 µM (inactive) in each case. In addition, the GI50 is > 100 µM (inactive) in assay [3]; > 100 µM (inactive) in assay [4]; > 100 µM (inactive) in [20]; > 100 µM (inactive) in [5]; above 100 µM in assay [6]; > 100 µM (inactive) in assay [7]. Besides, the GI50 in [8], in assay [9], in assay [10], in assay [17], in assay [18] and in assay [11] was > 100 µM (inactive) each time. In [13], the GI50 was > 100 µM (inactive).
With `Cc1ccc(S(=O)(=O)N/N=C(\C(=O)Nc2cccc([N+](=O)[O-])c2)c2nc3ccc([N+](=O)[O-])cc3nc2O)cc1`, the GI50 in assay [14] was 54.7 µM (inactive); in assay [1], 23.2 µM (inactive); in assay [15], > 100 µM (inactive); in [19], 30.1 µM (inactive); in [2], 48.5 µM (inactive); in assay [16], > 100 µM (inactive). For the same molecule, the GI50 in assay [3] is > 100 µM (inactive); in assay [4] it was 26 µM (inactive); in assay [20], > 100 µM (inactive); in [6] it was 16.3 µM; in [7], > 100 µM (inactive); in assay [8], 54.2 µM (inactive). Moreover, the GI50 in [9] is 61.9 µM (inactive); in assay [17], 7.64 µM (inactive); in assay [11] it was 37.9 µM (inactive); in assay [13], 59.8 µM (inactive).
